pIC50: −log10 of the molar value.
How the values were obtained:
AmpC (P99) = AmpC (P99) (Enterobacter cloacae, UniProt P05364); assay: biochemical
OXA-15 = target: T1, OXA-15 (Pseudomonas aeruginosa, UniProt Q51574); assay: β-lactamase inhibitory activity, determination of IC50 (nitrocefin hydrolysis); assay type: biochemical
T1 construct: made in house; host or cells: E. coli

[1] = tested on: P. aeruginosa UFR59 (IMP-29); assay: MIC of compounds and synergy with ceftazidime (broth microdilution); assay type: cell-based; settings: strain UFR59 (P. aeruginosa); for MIC: Pseudomonas aeruginosa, 18 h, read-out: MIC compounds of the invention alone
Method: (§1) Briefly, compounds alone according to the invention were prepared in DMSO and spotted (2 μL each) on sterile polystyrene plates (Corning, 3788). […] Microplates were incubated for 16-20 h at 35° C. in ambient air. The MIC of the compounds was defined as the lowest concentration of said compounds that prevented bacterial growth as read by visual inspection.

[2] = tested on: E. cloacae UFR70 (TEM-1, CTX-M-15, CMY-2, OXA-1, Porin loss); assay: as above; assay type: cell-based; settings: for MIC: Enterobacter cloacae, 18 h, read-out: MIC compounds of the invention alone; for MIC, combination of CAZ and compounds of the invention: MIC of ceftazidime with compound fixed at 4 μg/mL, strain UFR70 (E. cloacae)
Method: as §1

[3] = tested on: K. pneumoniae BAA-1898 (TEM-1, SHV-11, SHV-12, KPC-2); assay: as above; assay type: cell-based; settings: strain BAA-1898 (K. pneumoniae); for MIC: Klebsiella pneumoniae, BAA1898, read-out: MIC compounds of the invention alone; for MIC, combination of CAZ and compounds of the invention: MIC of ceftazidime with compound fixed at 4 μg/mL
Method: as §1

[4] = tested on: E. coli 131119 (TEM-1, OXA-48); assay: as above; assay type: cell-based; settings: strain 131119 (E. coli); for MIC: Escherichia coli, 18 h, read-out: MIC compounds of the invention alone; for MIC, combination of CAZ and compounds of the invention: MIC of ceftazidime with compound fixed at 4 μg/mL
Method: as §1

[5] = tested on: E. coli UFR61O (TEM-1, KPC-2); assay: as above; assay type: cell-based; settings: for MIC: Escherichia coli, strain UFR61O (E. coli), read-out: MIC compounds of the invention alone; for MIC, combination of CAZ and compounds of the invention: MIC of ceftazidime with compound fixed at 4 μg/mL, strain UFR610 (E. coli)
Method: as §1

[6] = tested on: P. aeruginosa UFR93 (Derepressed ampC, OprD-, MexAB+, MexXY+); assay: as above; assay type: cell-based; settings: for MIC: Pseudomonas aeruginosa, 18 h, read-out: MIC compounds of the invention alone
Method: as §1

[7] = tested on: P. aeruginosa UFR47 (VIM-1); assay: as above; assay type: cell-based; settings: strain UFR47 (P. aeruginosa); for MIC: Pseudomonas aeruginosa, 18 h, read-out: MIC compounds of the invention alone
Method: as §1

[8] = tested on: E. coli UFR74 (SHV-1, DHA-1); assay: as above; assay type: cell-based; settings: strain UFR74 (E. coli); for MIC: Escherichia coli, 18 h, read-out: MIC compounds of the invention alone; for MIC, combination of CAZ and compounds of the invention: MIC of ceftazidime with compound fixed at 4 μg/mL
Method: as §1

[9] = tested on: P. aeruginosa CIP105250 (OXA-15); assay: as above; assay type: cell-based; settings: strain CIP105250 (P. aeruginosa); for MIC, combination of CAZ and compounds of the invention: MIC of ceftazidime with compound fixed at 4 μg/mL; for MIC: Pseudomonas aeruginosa, 18 h, read-out: MIC compounds of the invention alone
Method: as §1

[10] = tested on: E. cloacae P99 (Derepressed ampC); assay: as above; assay type: cell-based; settings: strain P99 (E. cloacae); for MIC: Enterobacter cloacae, 18 h, read-out: MIC compounds of the invention alone; for MIC, combination of CAZ and compounds of the invention: MIC of ceftazidime with compound fixed at 4 μg/mL
Method: as §1

[11] = tested on: E. cloacae UFR38 (CTX-M-15, NDM-1); assay: as above; assay type: cell-based; settings: strain UFR38 (E. cloacae); for MIC: Enterobacter cloacae, 18 h, read-out: MIC compounds of the invention alone; for MIC, combination of CAZ and compounds of the invention: MIC of ceftazidime with compound fixed at 4 μg/mL
Method: as §1

[12] = tested on: P. aeruginosa UFR48 (VIM-2); assay: as above; assay type: cell-based; settings: strain UFR48 (P. aeruginosa); for MIC: Pseudomonas aeruginosa, 18 h, read-out: MIC compounds of the invention alone
Method: as §1

[13] = tested on: E. coli UFR18 (CTX-M-15, OXA-204); assay: as above; assay type: cell-based; settings: strain UFR18 (E. coli); for MIC: Escherichia coli, 18 h, read-out: MIC compounds of the invention alone; for MIC, combination of CAZ and compounds of the invention: MIC of ceftazidime with compound fixed at 4 μg/mL
Method: as §1

E. coli RGN238 (OXA-1) = assay: as above; assay type: cell-based; settings: strain RGN238 (E. coli); for MIC: Escherichia coli, 18 h, read-out: MIC compounds of the invention alone; for MIC, combination of CAZ and compounds of the invention: MIC of ceftazidime with compound fixed at 4 μg/mL
Method: as §1

[14] = tested on: E. coli UFR52 (TEM-1, SHV-12, IMP-8); assay: as above; assay type: cell-based; settings: strain UFR52 (E. coli); for MIC: Escherichia coli, 18 h, read-out: MIC compounds of the invention alone; for MIC, combination of CAZ and compounds of the invention: MIC of ceftazidime with compound fixed at 4 μg/mL
Method: as §1

[15] = tested on: K. pneumoniae UFR24 (TEM-1, SHV-2, SHV-11, OXA-1, OXA-48, OXA-47); assay: as above; assay type: cell-based; settings: strain UFR24 (K. pneumoniae); for MIC: Klebsiella pneumoniae, 18 h, read-out: MIC compounds of the invention alone; for MIC, combination of CAZ and compounds of the invention: MIC of ceftazidime with compound fixed at 4 μg/mL
Method: as §1

OXA-11 = target: T2, OXA-11 (Pseudomonas aeruginosa, UniProt Q06778); assay: β-lactamase inhibitory activity, determination of IC50 (nitrocefin hydrolysis); assay type: biochemical
T2 construct: made in house; host or cells: E. coli

[16] = tested on: K. oxytoca UFR21 (TEM-1, CTX-M-15, OXA-48); assay: microbe, parasite or virus in culture; assay type: cell-based; settings: for MIC: Klebsiella oxytoca, 18 h, read-out: MIC compounds of the invention alone
OXA-1 = target: T3, OXA-1 (Escherichia coli, UniProt P13661); assay: β-lactamase inhibitory activity, determination of IC50 (nitrocefin hydrolysis); assay type: biochemical
T3 construct: made in house; host or cells: E. coli

KPC-2 = target: T4, KPC-2 (Klebsiella pneumoniae, UniProt Q9F663); assay: as above; assay type: biochemical
T4 construct: made in house; host or cells: E. coli

CTX-M-15 = target: T5, CTX-M-15 (Escherichia coli, UniProt Q9EXV5); assay: as above; assay type: biochemical
T5 construct: made in house; host or cells: E. coli

[17] = tested on: K. pneumoniae UFR68 (TEM-1, SHV-11, CTX-M-15, KPC-3); assay: microbe, parasite or virus in culture; assay type: cell-based; settings: for MIC: Klebsiella pneumoniae, 18 h, read-out: MIC compounds of the invention alone
AmpC (PAE) = AmpC (PAE) (Pseudomonas aeruginosa, UniProt P24735); assay: biochemical
[18] = MIC of ceftazidime with compound fixed at 4 μg/mL

T1 sequence (Q51574 22-275): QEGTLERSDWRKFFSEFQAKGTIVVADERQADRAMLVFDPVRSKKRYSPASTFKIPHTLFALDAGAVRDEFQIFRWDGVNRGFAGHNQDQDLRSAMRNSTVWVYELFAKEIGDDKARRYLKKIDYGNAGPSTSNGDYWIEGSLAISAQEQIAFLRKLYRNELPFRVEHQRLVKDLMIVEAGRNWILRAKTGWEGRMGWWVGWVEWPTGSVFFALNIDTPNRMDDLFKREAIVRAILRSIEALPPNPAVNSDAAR
Chain of AmpC (P99) (P05364 21-381): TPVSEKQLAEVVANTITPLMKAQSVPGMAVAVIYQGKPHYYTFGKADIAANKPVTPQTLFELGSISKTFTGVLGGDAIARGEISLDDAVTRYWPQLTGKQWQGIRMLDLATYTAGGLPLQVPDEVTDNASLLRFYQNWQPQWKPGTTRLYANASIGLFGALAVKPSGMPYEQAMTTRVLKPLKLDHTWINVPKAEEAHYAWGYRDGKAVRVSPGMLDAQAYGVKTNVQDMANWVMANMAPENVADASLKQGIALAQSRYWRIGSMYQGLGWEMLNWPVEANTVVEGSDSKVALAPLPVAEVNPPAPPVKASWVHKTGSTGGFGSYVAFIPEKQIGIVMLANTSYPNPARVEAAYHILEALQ
T3 sequence (P13661 26-276): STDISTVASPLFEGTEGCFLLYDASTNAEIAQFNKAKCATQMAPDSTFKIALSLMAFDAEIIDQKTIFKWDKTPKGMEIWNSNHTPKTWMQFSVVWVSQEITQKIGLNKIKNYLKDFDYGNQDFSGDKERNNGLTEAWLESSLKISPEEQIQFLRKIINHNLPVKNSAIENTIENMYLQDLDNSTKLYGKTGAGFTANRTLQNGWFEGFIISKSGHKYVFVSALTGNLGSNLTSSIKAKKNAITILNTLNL
Chain of AmpC (PAE) (P24735 27-397): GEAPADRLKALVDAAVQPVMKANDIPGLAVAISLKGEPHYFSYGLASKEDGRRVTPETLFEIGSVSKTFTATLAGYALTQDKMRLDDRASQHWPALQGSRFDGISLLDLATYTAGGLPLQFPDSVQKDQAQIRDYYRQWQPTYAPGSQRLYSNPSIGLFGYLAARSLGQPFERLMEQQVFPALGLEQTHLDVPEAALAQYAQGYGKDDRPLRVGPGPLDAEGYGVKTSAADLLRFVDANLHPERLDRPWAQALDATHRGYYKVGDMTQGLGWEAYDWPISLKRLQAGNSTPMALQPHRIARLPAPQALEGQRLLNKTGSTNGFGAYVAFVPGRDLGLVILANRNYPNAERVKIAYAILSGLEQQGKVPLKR
T2 sequence (Q06778 21-266): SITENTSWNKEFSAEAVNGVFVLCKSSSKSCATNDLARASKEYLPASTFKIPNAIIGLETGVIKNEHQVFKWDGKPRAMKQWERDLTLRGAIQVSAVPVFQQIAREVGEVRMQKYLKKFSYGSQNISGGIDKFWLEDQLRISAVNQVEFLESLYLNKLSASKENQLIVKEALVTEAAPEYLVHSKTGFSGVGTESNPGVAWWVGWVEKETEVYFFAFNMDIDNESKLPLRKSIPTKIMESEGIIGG
T4 sequence (Q9F663 25-293 limits assumed): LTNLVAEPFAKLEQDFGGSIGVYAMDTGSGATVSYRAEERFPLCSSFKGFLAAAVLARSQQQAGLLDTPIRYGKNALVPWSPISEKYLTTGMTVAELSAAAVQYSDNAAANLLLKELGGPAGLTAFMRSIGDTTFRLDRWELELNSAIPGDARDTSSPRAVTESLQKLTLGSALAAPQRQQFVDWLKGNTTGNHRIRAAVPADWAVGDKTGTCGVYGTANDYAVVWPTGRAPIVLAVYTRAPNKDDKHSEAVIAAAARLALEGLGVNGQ
T5 sequence (Q9EXV5 entry or part of it): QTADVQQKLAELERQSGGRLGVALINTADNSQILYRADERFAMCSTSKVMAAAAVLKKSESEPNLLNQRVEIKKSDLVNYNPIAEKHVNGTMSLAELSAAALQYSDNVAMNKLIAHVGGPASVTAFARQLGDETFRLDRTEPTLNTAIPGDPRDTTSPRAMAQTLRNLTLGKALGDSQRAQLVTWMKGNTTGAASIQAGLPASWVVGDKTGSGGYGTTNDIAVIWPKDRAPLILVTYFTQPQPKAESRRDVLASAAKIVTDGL

SMILES: NC[C@@H]1C(c2nccs2)=C[C@@H]2CN1C(=O)N2OS(=O)(=O)[O-].O=C(O)C(F)(F)F.[Na+] [Example 2, Sodium and 2,2,2-trifluoroacetate [(2S,5R)-2-(azaniumylmethyl)-7-oxo-3-thiazol-2-yl-1,6-diazabicyclo[3.2.1]oct-3-en-6-yl] sulfate]
- pIC50 (AmpC (P99)): 8.49
- pIC50 (OXA-15): 9.08
- MIC, combination of CAZ and compounds of the invention [1, 18]: <0.25 µg/mL
- MIC [1]: 8 µg/mL
- MIC [2]: 4 µg/mL
- MIC, combination of CAZ and compounds of the invention [2]: <0.25 µg/mL
- MIC [3]: 16 µg/mL
- MIC, combination of CAZ and compounds of the invention [3]: ≤0.125 µg/mL
- MIC [4]: ≤ 0.016 µg/mL
- MIC, combination of CAZ and compounds of the invention [4]: <0.25 µg/mL
- MIC [5]: 0.031 µg/mL
- MIC, combination of CAZ and compounds of the invention [5]: <0.25 µg/mL
- MIC, combination of CAZ and compounds of the invention ([6]; MIC of ceftazidime with compound fixed at 4 μg/mL, strain UFR93 (P. aeruginosa)): <0.25 µg/mL
- MIC [6]: 4 µg/mL
- MIC, combination of CAZ and compounds of the invention [7, 18]: <0.25 µg/mL
- MIC [7]: 2 µg/mL
- MIC [8]: 16 µg/mL
- MIC, combination of CAZ and compounds of the invention [8]: ≤0.125 µg/mL
- MIC, combination of CAZ and compounds of the invention [9]: ≤0.125 µg/mL
- MIC [9]: 8 µg/mL
- MIC [10]: ≤ 0.016 µg/mL
- MIC, combination of CAZ and compounds of the invention [10]: <0.25 µg/mL
- MIC [11]: 32 µg/mL
- MIC, combination of CAZ and compounds of the invention [11]: <0.25 µg/mL
- MIC, combination of CAZ and compounds of the invention [12, 18]: <0.25 µg/mL
- MIC [12]: 2 µg/mL
- MIC [13]: ≤ 0.016 µg/mL
- MIC, combination of CAZ and compounds of the invention [13]: <0.25 µg/mL
- MIC (E. coli RGN238 (OXA-1)): 8 µg/mL
- MIC, combination of CAZ and compounds of the invention (E. coli RGN238 (OXA-1)): ≤0.125 µg/mL
- MIC [14]: 4 µg/mL
- MIC, combination of CAZ and compounds of the invention [14]: <0.25 µg/mL
- MIC [15]: > 32 µg/mL
- MIC, combination of CAZ and compounds of the invention [15]: 0.25 µg/mL
- pIC50 (OXA-11): 8.17
- MIC [16]: 16 µg/mL
- pIC50 (OXA-1): 8.21
- pIC50 (KPC-2): 8.41
- pIC50 (CTX-M-15): 9.12
- MIC [17]: 16 µg/mL
- pIC50 (AmpC (PAE)): 6.96

SMILES: NC[C@@H]1C(c2ncco2)=C[C@@H]2CN1C(=O)N2OS(=O)(=O)[O-].O=C(O)C(F)(F)F.[Na+] [Example 5, Sodium and 2,2,2-trifluoroacetate [(2S,5R)-2-(azaniumylmethyl)-7-oxo-3-oxazol-2-yl-1,6-diazabicyclo[3.2.1]oct-3-en-6-yl] sulfate]
- pIC50 (AmpC (P99)): 4.96
- pIC50 (OXA-15): 8.10
- MIC [1]: 2 µg/mL
- MIC [2]: 8 µg/mL
- MIC, combination of CAZ and compounds of the invention [2]: <0.25 µg/mL
- MIC [3]: 16 µg/mL
- MIC, combination of CAZ and compounds of the invention [3]: ≤0.125 µg/mL
- MIC [4]: 0.063 µg/mL
- MIC, combination of CAZ and compounds of the invention [4]: <0.25 µg/mL
- MIC [5]: 0.5 µg/mL
- MIC, combination of CAZ and compounds of the invention [5]: <0.25 µg/mL
- MIC [6]: 4 µg/mL
- MIC [7]: 1 µg/mL
- MIC [8]: 16 µg/mL
- MIC, combination of CAZ and compounds of the invention [8]: <0.25 µg/mL
- MIC, combination of CAZ and compounds of the invention [9]: <0.25 µg/mL
- MIC [9]: 4 µg/mL
- MIC [10]: ≤ 0.016 µg/mL
- MIC, combination of CAZ and compounds of the invention [10]: <0.25 µg/mL
- MIC [11]: ≤ 0.016 µg/mL
- MIC, combination of CAZ and compounds of the invention [11]: <0.25 µg/mL
- MIC [12]: 2 µg/mL
- MIC [13]: ≤ 0.016 µg/mL
- MIC, combination of CAZ and compounds of the invention [13]: <0.25 µg/mL
- MIC (E. coli RGN238 (OXA-1)): 16 µg/mL
- MIC, combination of CAZ and compounds of the invention (E. coli RGN238 (OXA-1)): <0.25 µg/mL
- MIC [14]: 4 µg/mL
- MIC, combination of CAZ and compounds of the invention [14]: <0.25 µg/mL
- MIC [15]: > 32 µg/mL
- MIC, combination of CAZ and compounds of the invention [15]: <0.25 µg/mL
- pIC50 (OXA-11): 6.37
- MIC [16]: 32 µg/mL
- MIC, combination of CAZ and compounds of the invention ([16]; MIC of ceftazidime with compound fixed at 4 μg/mL, strain UFR21 (K. oxytoca)): <0.25 µg/mL
- pIC50 (OXA-1): 6.43
- pIC50 (KPC-2): 5.74
- pIC50 (CTX-M-15): 6.89
- MIC [17]: 32 µg/mL
- MIC, combination of CAZ and compounds of the invention ([17]; MIC of ceftazidime with compound fixed at 4 μg/mL, strain UFR68 (K. pneumoniae)): ≤0.25 µg/mL
- pIC50 (AmpC (PAE)): 4.92
